This assay has as its system OCI-LY10. As to the kind of experiment: Antiproliferative effect in lymphoma cell line OCI-LY10 (CellTiter-Glo). It counts as cell-based, human. The note with it: OCI-LY10, 5 days; for IC50: Homo sapiens, 120 h. Here is the method:
Experimental purpose: The experiment aims to evaluate the inhibitory effects of the test compounds on cell proliferation in the diffuse large B-cell lymphoma (DLBCL) cell lines OCI-LY10 and TMD-8.
The tumor cell lines were cultured in a 37° C., 5% CO2 incubator under the above culture conditions. Regular passage, and cells in logarithmic growth phase were taken for plating.
• (1) Cells were stained with trypan blue and viable cells were counted. • (2) The cell concentration was adjusted to an appropriate concentration.
• (3) 100 μL of cell suspension per well was added to the culture plate as shown above. • (4) The culture plate was cultured overnight in a 37° C., 5% CO2 incubator with 100% relative humidity.
Preparation of stock solution storage plate with 1000 times the initial concentration of the compound: The compound was serially diluted with DMSO from the highest concentration to the lowest concentration. The solution was prepared as needed each time.
4. Preparation of 1000× Compound Working Solution and Cell Treatment with Compounds • (1) Preparation of the working solution with 5 times the initial concentration of the compound: For 3-fold dilution of the compound, 30 μL of the compound from a stock solution at 1000-fold concentration was taken, and 20 μL of DMSO was added to the subsequent wells. Then, 10 μL was transferred from one concentration to the next in sequence. For 5-fold dilution of the compound, 30 μL of the compound from a stock solution at 1000-fold concentration was taken, and 24 μL of DMSO was added to the subsequent wells. Then, 6 μL was transferred from one concentration to the next in sequence. 20 μL of DMSO was added to the vehicle control. The 1000-fold concentrated compound was diluted 200 times with culture medium, i.e., 1 μL of the 1000-fold diluted compound is added to 199 μL of culture medium, and the mixture was homogenized using a pipette. • (2) Compound addition: 25 μL of the 5-fold compound solution was added to the cell culture plate. • (3) The 96-well cell plate was returned to the incubator to culture OCI-LY10 (with either 3-fold or 5-fold dilution, incubated with compounds added for 5 days) and TMD-8 (with either 3-fold or 5-fold dilution, incubated with compounds added for 5 days).
The following steps were performed according to the instructions of Promega CellTiter-Glo luminescent cell viability assay kit (Promega-G7573). • (1) CellTiter-Glo buffer was melted and brought to room temperature. • (2) CellTiter-Glo substrate was brought to room temperature. • (3) CellTiter-Glo working solution was prepared by adding 10 mL of CellTiter-Glo buffer to a vial of CellTiter-Glo substrate to dissolve the substrate. • (4) The mixture was slowly vortexed and shaken to be fully dissolved. • (5) The cell culture plate was taken out and left for 30 minutes to equilibrate to room temperature. • (6) 60 μL of CellTiter-Go working solution was added per well (equal to half the volume of cell culture medium per well). The cell plate was wrapped in aluminum foil to be protected from light. • (7) The culture plate was shaken on an orbital shaker for 2 minutes to induce cell lysis. • (8) The culture plate was left at room temperature for 10 minutes to stabilize the luminescent signal. • (9) The luminescent signal was detected on a 2104 EnVision plate reader.
The inhibition rate (IIR) of the test compound was calculated using the following formula: IR (%)=(1−RLU compound/RLU vehicle control)*100%. The inhibition rates of compounds at different concentrations were calculated in Excel, and then GraphPad Prism software was used to plot inhibition curves and calculate relevant parameters, including minimum inhibition rate, maximum inhibition rate, and IC50.
Background: In ATP-based viability assays light output follows the ATP content of the culture.

Where a name gives a salt, the structure may show the parent alone.

In the case of `O=C1CCC(c2coc3cc(NC(=O)CN4CCN(C[C@H]5CC[C@H](N6CC(NC(=O)c7coc(-c8ccnc(NCC9CC9)c8)n7)C(C(F)F)N6)CC5)CC4)ccc23)C(=O)N1` (some centres unmarked) [Hydrochloride of WX002], the IC50 was 192 nM and the Maximum inhibition rate was determined as 63.27%.
Compound `O=C1CCC(c2noc3cc(NC(=O)CN4CCN(C[C@H]5CC[C@H](n6cc(NC(=O)c7coc(-c8ccnc(NCC9CC9)c8)n7)c(C(F)F)n6)CC5)CC4)ccc23)C(=O)N1` (some centres unmarked) [Hydrochloride of WX025] had a concentration for half-maximal inhibition (IC50) of 24.4 nM and a Maximum inhibition rate of 97.39%.
`CC(C)(O)c1cc2nc([C@H]3CC[C@H](CN4CCN(CC(=O)Nc5ccc6c(ccc7onc(C8CCC(=O)NC8=O)c76)c5)CC4)CC3)sc2cc1NC(=O)c1cccc(C(F)(F)F)n1` (some centres unmarked) [Formate of WX020] showed a half-inhibitory concentration (IC50) of 25 nM and a Maximum inhibition rate of 94.96%.
In the case of `O=C1CCC(c2noc3c(NC(=O)CN4CCN(C[C@H]5CC[C@H](n6cc(NC(=O)c7coc(-c8ccnc(NCC9CC9)c8)n7)c(C(F)F)n6)CC5)CC4)cccc23)C(=O)N1` (some centres unmarked) [Hydrochloride of WX028], half-maximal inhibition (IC50) required 85.2 nM and the Maximum inhibition rate is given as 99.01%.
`O=C1CCC(c2coc3ccc4c(NC(=O)CN5CCN(C[C@H]6CC[C@H](n7cc(NC(=O)c8coc(-c9ccnc(NCC%10CC%10)c9)n8)c(C(F)F)n7)CC6)CC5)cccc4c23)C(=O)N1` (some centres unmarked) [Trifluoroacetate of WX011] displayed an IC50 of 17 nM and a Maximum inhibition rate of 93.42%.
The compound `O=C1CCC(c2noc3ccc4c(NC(=O)CN5CCN(C[C@H]6CC[C@H](n7cc(NC(=O)c8coc(-c9ccnc(NCC%10CC%10)c9)n8)c(C(F)F)n7)CC6)CC5)cccc4c23)C(=O)N1` (some centres unmarked) [Hydrochloride of WX014] returned an IC50 of 13.7 nM and a Maximum inhibition rate of 94.54%.
`O=C1CCC(c2noc3ccc4c(NC(=O)C(F)(F)C5CCN(CC6CCC(n7cc(NC(=O)c8coc(-c9ccnc(NCC%10CC%10)c9)n8)c(C(F)F)n7)CC6)CC5)cccc4c23)C(=O)N1` (centres unmarked) [Hydrochloride of WX018] returned an IC50 of 6.99 nM and a Maximum inhibition rate of 99.92%.

The IC50 is the midpoint of a concentration-inhibition curve. A higher IC50 goes with lower potency.

(Values after patent publication US20240400547A1, “2,6-PIPERIDINEDIONE COMPOUND AND APPLICATION THEREOF” (MEDSHINE DISCOVERY INC., priority 2021, published 2024).)
